Source: patent US11780893B2, “Kv1.3 blockers” (Zealand Pharma A/S, priority 2019, dated 2023)
Bridge positions count the residues as written; N and C are the ends. Square brackets hold non-standard residues; d marks the D form. Peptide text beside a SMILES is read from it. Nle = CCCC[C@H](N)C(=O)O

Target: T1, human Kv1.3 voltage-gated K+ channel (Homo sapiens, UniProt P22001)
T1 construct: host or cells: CHO-DUKX
Assay: cell-based
Conditions: inhibition of thallium flux, CHO-DUKX cells with human Kv1.3; read-out: IC50

T1 sequence (P22001 whole entry): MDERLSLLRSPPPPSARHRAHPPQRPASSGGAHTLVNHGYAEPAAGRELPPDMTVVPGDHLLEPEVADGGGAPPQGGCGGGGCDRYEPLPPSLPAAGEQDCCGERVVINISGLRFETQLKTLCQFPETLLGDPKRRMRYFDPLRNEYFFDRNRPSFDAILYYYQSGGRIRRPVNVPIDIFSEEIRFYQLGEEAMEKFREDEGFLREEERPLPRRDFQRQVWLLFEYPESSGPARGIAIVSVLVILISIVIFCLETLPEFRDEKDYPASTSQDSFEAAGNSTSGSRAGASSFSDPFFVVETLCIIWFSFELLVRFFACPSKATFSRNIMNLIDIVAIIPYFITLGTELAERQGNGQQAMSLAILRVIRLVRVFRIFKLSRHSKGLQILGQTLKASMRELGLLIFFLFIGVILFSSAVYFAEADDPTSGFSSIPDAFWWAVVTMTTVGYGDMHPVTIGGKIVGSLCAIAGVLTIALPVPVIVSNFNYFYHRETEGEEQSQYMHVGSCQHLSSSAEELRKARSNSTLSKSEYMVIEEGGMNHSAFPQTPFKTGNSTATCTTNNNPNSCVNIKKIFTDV

CCCC[C@H](NC(=O)[C@@H]1CCCN1)C(=O)N[C@@H](CCC(=O)O)C(=O)N[C@@H](CCCC)C(=O)N[C@@H](CCCNC(=N)N)C(=O)N[C@H]1CSSC[C@@H]2NC(=O)[C@H](CCCCN)NC(=O)CNC(=O)[C@H](Cc3ccccc3)NC(=O)[C@H]([C@@H](C)CC)NC(=O)[C@H](CO)NC(=O)CNC(=O)[C@H]([C@@H](C)CC)NC(=O)[C@H](C)NC(=O)[C@H](C)NC(=O)[C@H](CC(C)C)NC(=O)[C@@H]3CSSC[C@@H](C(=O)N[C@@H](Cc4ccc(O)cc4)C(=O)N4CCC[C@H]4C(=O)N[C@@H](CCCNC(=N)N)C(=O)O)NC(=O)[C@H](CCCCN)NC(=O)[C@H](CSSC[C@H](NC(=O)[C@H](CCC(=O)O)NC(=O)[C@H](C(C)C)NC(=O)[C@@H]4CCCN4C(=O)[C@H](C)NC(=O)[C@H](CO)NC1=O)C(=O)N[C@@H](CCCCN)C(=O)N[C@@H](CCC(N)=O)C(=O)N[C@@H](CCCCN)C(=O)N3)NC(=O)[C@H](CCCCN)NC(=O)[C@H](CCCCN)NC(=O)[C@H](CC(N)=O)NC(=O)[C@H](CCCC)NC2=O [Compound 137] (H-P[Nle]E[Nle]RCSAPVECKQKCLAAIGSIFGKC[Nle]NKKCKCYPR-OH; disulfide 6-27, 12-32, 16-34)
IC50: 0.333 nM

CCCC[C@H](NC(=O)[C@@H]1CCCN1)C(=O)N[C@@H](CCC(=O)O)C(=O)N[C@@H](CCCC)C(=O)N[C@@H](CCCNC(=N)N)C(=O)N[C@H]1CSSC[C@@H]2NC(=O)[C@H](CCCCN)NC(=O)CNC(=O)[C@H](Cc3ccccc3)NC(=O)[C@H]([C@@H](C)CC)NC(=O)[C@H](CO)NC(=O)CNC(=O)[C@H]([C@@H](C)CC)NC(=O)[C@H](C)NC(=O)[C@H](C)NC(=O)[C@H](CC(C)C)NC(=O)[C@@H]3CSSC[C@@H](C(=O)N[C@@H](Cc4ccc(O)cc4)C(=O)N4CCC[C@H]4C(=O)N[C@@H](CCCNC(=N)N)C(=O)O)NC(=O)[C@H](CCCCN)NC(=O)[C@H](CSSC[C@H](NC(=O)[C@H](CCC(=O)O)NC(=O)[C@@H]4CCCN4C(=O)[C@H](CO)NC(=O)[C@H](C)NC(=O)[C@H](CO)NC1=O)C(=O)N[C@@H](CCCCN)C(=O)N[C@@H](CCC(N)=O)C(=O)N[C@@H](CCCCN)C(=O)N3)NC(=O)[C@H](CCCCN)NC(=O)[C@H](CCCCN)NC(=O)[C@H](CC(N)=O)NC(=O)[C@H](CCCC)NC2=O [Compound 138] (H-P[Nle]E[Nle]RCSASPECKQKCLAAIGSIFGKC[Nle]NKKCKCYPR-OH; disulfide 6-27, 12-32, 16-34)
IC50: 0.228 nM

CCCC[C@H](NC(=O)[C@@H]1CCCN1)C(=O)N[C@@H](CCC(=O)O)C(=O)N[C@@H](CCCC)C(=O)N[C@@H](CCCNC(=N)N)C(=O)N[C@H]1CSSC[C@@H]2NC(=O)[C@H](CCCCN)NC(=O)CNC(=O)[C@H](Cc3ccccc3)NC(=O)[C@H]([C@@H](C)CC)NC(=O)[C@H](CO)NC(=O)CNC(=O)[C@H]([C@@H](C)CC)NC(=O)[C@H](C)NC(=O)[C@H](C)NC(=O)[C@H](CC(C)C)NC(=O)[C@@H]3CSSC[C@@H](C(=O)N[C@@H](Cc4ccc(O)cc4)C(=O)N4CCC[C@H]4C(=O)N[C@@H](CCCNC(=N)N)C(=O)O)NC(=O)[C@H](CCCCN)NC(=O)[C@H](CSSC[C@H](NC(=O)[C@H](CCC(=O)O)NC(=O)[C@H](CCC(N)=O)NC(=O)[C@H](CO)NC(=O)[C@H](C)NC(=O)[C@H](CO)NC1=O)C(=O)N[C@@H](CCCCN)C(=O)N[C@@H](CCC(N)=O)C(=O)N[C@@H](CCCCN)C(=O)N3)NC(=O)[C@H](CCCCN)NC(=O)[C@H](CCCCN)NC(=O)[C@H](CC(N)=O)NC(=O)[C@H](CCCC)NC2=O [Compound 139] (H-P[Nle]E[Nle]RCSASQECKQKCLAAIGSIFGKC[Nle]NKKCKCYPR-OH; disulfide 6-27, 12-32, 16-34)
IC50: 0.453 nM

CCCC[C@H](NC(=O)[C@@H]1CCCN1)C(=O)N[C@@H](CCC(=O)O)C(=O)N[C@@H](CCCC)C(=O)N[C@@H](CCCNC(=N)N)C(=O)N[C@H]1CSSC[C@@H]2NC(=O)[C@H](CCCCN)NC(=O)CNC(=O)[C@H](Cc3ccccc3)NC(=O)[C@H]([C@@H](C)CC)NC(=O)[C@H](CO)NC(=O)CNC(=O)[C@H]([C@@H](C)CC)NC(=O)[C@H](C)NC(=O)[C@H](C)NC(=O)[C@H](CC(C)C)NC(=O)[C@@H]3CSSC[C@@H](C(=O)N[C@@H](Cc4ccc(O)cc4)C(=O)N4CCC[C@H]4C(=O)N[C@@H](CCCNC(=N)N)C(=O)O)NC(=O)[C@H](CCCCN)NC(=O)[C@H](CSSC[C@H](NC(=O)[C@H](CCC(=O)O)NC(=O)[C@H](C(C)C)NC(=O)[C@H](CO)NC(=O)[C@H](C)NC(=O)[C@H](CO)NC1=O)C(=O)N[C@@H](CC(C)C)C(=O)N[C@@H](CCC(N)=O)C(=O)N[C@@H](CCCCN)C(=O)N3)NC(=O)[C@H](CCCCN)NC(=O)[C@H](CCCCN)NC(=O)[C@H](CC(N)=O)NC(=O)[C@H](CCCC)NC2=O [Compound 140] (H-P[Nle]E[Nle]RCSASVECLQKCLAAIGSIFGKC[Nle]NKKCKCYPR-OH; disulfide 6-27, 12-32, 16-34)
IC50: 3.57 nM

CCCC[C@H](NC(=O)[C@@H]1CCCN1)C(=O)N[C@@H](CCC(=O)O)C(=O)N[C@@H](CCCC)C(=O)N[C@@H](CCCNC(=N)N)C(=O)N[C@H]1CSSC[C@@H]2NC(=O)[C@H](CCCCN)NC(=O)CNC(=O)[C@H](Cc3ccccc3)NC(=O)[C@H]([C@@H](C)CC)NC(=O)[C@H](CO)NC(=O)CNC(=O)[C@H]([C@@H](C)CC)NC(=O)[C@H](C)NC(=O)[C@H](C)NC(=O)[C@H](CC(C)C)NC(=O)[C@@H]3CSSC[C@@H](C(=O)N[C@@H](Cc4ccc(O)cc4)C(=O)N4CCC[C@H]4C(=O)N[C@@H](CCCNC(=N)N)C(=O)O)NC(=O)[C@H](CCCCN)NC(=O)[C@H](CSSC[C@H](NC(=O)[C@H](CCC(=O)O)NC(=O)[C@H](C(C)C)NC(=O)[C@H](CO)NC(=O)[C@H](C)NC(=O)[C@H](CO)NC1=O)C(=O)N[C@@H](CCCCN)C(=O)N[C@@H](CCC(N)=O)C(=O)N1CCC[C@H]1C(=O)N3)NC(=O)[C@H](CCCCN)NC(=O)[C@H](CCCCN)NC(=O)[C@H](CC(N)=O)NC(=O)[C@H](CCCC)NC2=O [Compound 141] (H-P[Nle]E[Nle]RCSASVECKQPCLAAIGSIFGKC[Nle]NKKCKCYPR-OH; disulfide 6-27, 12-32, 16-34)
IC50: 1.07 nM

CCCC[C@H](NC(=O)[C@@H]1CCCN1)C(=O)N[C@@H](CCC(=O)O)C(=O)N[C@@H](CCCC)C(=O)N[C@@H](CCCNC(=N)N)C(=O)N[C@H]1CSSC[C@@H]2NC(=O)[C@H](CCCCN)NC(=O)CNC(=O)[C@H](Cc3ccccc3)NC(=O)[C@H]([C@@H](C)CC)NC(=O)[C@H](CO)NC(=O)CNC(=O)[C@H]([C@@H](C)CC)NC(=O)[C@H](C)NC(=O)[C@H](C)NC(=O)[C@H](CC(C)C)NC(=O)[C@@H]3CSSC[C@@H](C(=O)N[C@@H](Cc4ccc(O)cc4)C(=O)N4CCC[C@H]4C(=O)N[C@@H](CCCNC(=N)N)C(=O)O)NC(=O)[C@H](CCCCN)NC(=O)[C@H](CSSC[C@H](NC(=O)[C@H](CCC(=O)O)NC(=O)[C@H](C(C)C)NC(=O)[C@H](CO)NC(=O)[C@H](C)NC(=O)[C@H](CCC(=O)O)NC1=O)C(=O)N[C@@H](CCCCN)C(=O)N[C@@H](CCC(N)=O)C(=O)N[C@@H](CCCCN)C(=O)N3)NC(=O)[C@H](CCCCN)NC(=O)[C@H](CCCCN)NC(=O)[C@H](CC(N)=O)NC(=O)[C@H](CCCC)NC2=O [Compound 142] (H-P[Nle]E[Nle]RCEASVECKQKCLAAIGSIFGKC[Nle]NKKCKCYPR-OH; disulfide 6-27, 12-32, 16-34)
IC50: 1.5 nM

CCCC[C@H](NC(=O)[C@@H]1CCCN1)C(=O)N[C@@H](CCC(=O)O)C(=O)N[C@@H](CCCC)C(=O)N[C@@H](CCCNC(=N)N)C(=O)N[C@H]1CSSC[C@@H]2NC(=O)[C@H](CCCCN)NC(=O)CNC(=O)[C@H](Cc3ccccc3)NC(=O)[C@H]([C@@H](C)CC)NC(=O)[C@H](CO)NC(=O)CNC(=O)[C@H]([C@@H](C)CC)NC(=O)[C@H](C)NC(=O)[C@H](C)NC(=O)[C@H](CC(C)C)NC(=O)[C@@H]3CSSC[C@@H](C(=O)N[C@@H](Cc4ccc(O)cc4)C(=O)N4CCC[C@H]4C(=O)N[C@@H](CCCNC(=N)N)C(=O)O)NC(=O)[C@H](CCCCN)NC(=O)[C@H](CSSC[C@H](NC(=O)[C@H](CCC(=O)O)NC(=O)[C@H](C(C)C)NC(=O)[C@H](CO)NC(=O)[C@H](C)NC(=O)[C@H](Cc4ccccc4)NC1=O)C(=O)N[C@@H](CCCCN)C(=O)N[C@@H](CCC(N)=O)C(=O)N[C@@H](CCCCN)C(=O)N3)NC(=O)[C@H](CCCCN)NC(=O)[C@H](CCCCN)NC(=O)[C@H](CC(N)=O)NC(=O)[C@H](CCCC)NC2=O [Compound 143] (H-P[Nle]E[Nle]RCFASVECKQKCLAAIGSIFGKC[Nle]NKKCKCYPR-OH; disulfide 6-27, 12-32, 16-34)
IC50: 0.316 nM

CCCC[C@H](NC(=O)[C@@H]1CCCN1)C(=O)N[C@@H](CCC(=O)O)C(=O)N[C@@H](CCCC)C(=O)N[C@@H](CCCNC(=N)N)C(=O)N[C@H]1CSSC[C@@H]2NC(=O)[C@H](CCCCN)NC(=O)CNC(=O)[C@H](Cc3ccccc3)NC(=O)[C@H]([C@@H](C)CC)NC(=O)[C@H](CO)NC(=O)CNC(=O)[C@H]([C@@H](C)CC)NC(=O)[C@H](C)NC(=O)[C@H](C)NC(=O)[C@H](CC(C)C)NC(=O)[C@@H]3CSSC[C@@H](C(=O)N[C@@H](Cc4ccc(O)cc4)C(=O)N4CCC[C@H]4C(=O)N[C@@H](CCCNC(=N)N)C(=O)O)NC(=O)[C@H](CCCCN)NC(=O)[C@H](CSSC[C@H](NC(=O)[C@H](CCC(=O)O)NC(=O)[C@H](C(C)C)NC(=O)[C@H](CO)NC(=O)[C@H](Cc4ccc(O)cc4)NC(=O)[C@H](CO)NC1=O)C(=O)N[C@@H](CCCCN)C(=O)N[C@@H](CCC(N)=O)C(=O)N[C@@H](CCCCN)C(=O)N3)NC(=O)[C@H](CCCCN)NC(=O)[C@H](CCCCN)NC(=O)[C@H](CC(N)=O)NC(=O)[C@H](CCCC)NC2=O [Compound 144] (H-P[Nle]E[Nle]RCSYSVECKQKCLAAIGSIFGKC[Nle]NKKCKCYPR-OH; disulfide 6-27, 12-32, 16-34)
IC50: 0.739 nM
